Experimental data as given in patent US8481005B2, “Methods to prevent cytotoxicity using N-acetyl-cysteine” (priority 2006, dated 2013).

What was measured:
osteoblasts = test: Cell death of osteoblasts differentiated from mesenchymal stem cells; assay type: cell-based
Protocol: In a subsequent study, mesenchymal stem cells were differentiated to osteoblasts in differentiation media. […] Treated osteoblasts were then removed and cell death was determined using FITC-Annexin V and PI staining.

[1] = system: HEp2 cells co-cultured with PBMCs; test: VEGF in co-cultures of HEMA/NAC treated HEp2 cells with PBMCs (multiplex cytokine array); assay type: cell-based, human; set-up: unit not given here
[2] = system: HEp2 cells co-cultured with PBMCs; test: IL-6 in co-cultures of HEMA/NAC treated HEp2 cells with healthy donor PBMCs; assay type: cell-based, human
Protocol: HEp-2 cells obtained from ATCC were cultured in DMEM supplemented with 10% FBS, 1% sodium pyruvate, 1% non essential amino acids and 1% antibiotic-antimycotic solution. […] The cells were trypsinized and washed 4 times with 1×PBS before they were co-cultured with PBMCs obtained from a healthy individual. A 4:1 ratio of effector to target cells (PBMC:HEp2) were used in these cultures. PBMCs were treated with and without IL-2 before they were co-cultured with HEp-2 cells. The supernatants were then removed from the co-cultures after an overnight incubation and analyzed using the FAST QUANT multiplex cytokine array kit to determine the levels of secreted cytokines.

Caspase 3 [3] = test: Full length caspase 3 in keratinocytes; assay type: cell-based; details: about 8 hours, NAC 20 mM
Excerpt: Roles of NFkB and GAPDH in HEMA-Mediated Cell Death

[4] = system: human dental pulp stromal cells; test: Human dental pulp stromal cells, 4 hour treatment: VEGF ELISA and apoptosis; assay type: cell-based; details: HEMA alone or with NAC 20 mM, then overnight
Protocol: After this treatment cells were washed and incubated overnight.

HaCaT cells = test: PI/Annexin V cell death in HaCaT skin keratinocytes; assay type: cell-based; details: HEMA 0.082M to 0.00164M alone or with NAC 20 mM, overnight
Protocol: Ten thousand events were analyzed for each sample. (FIG. 5)

[5] = system: human mesenchymal stem cells; test: VEGF secretion of human mesenchymal stem cells (ELISA); assay type: cell-based; details: HEMA alone or with NAC 20 mM, 4 hours, then overnight
Jurkat T cells = test: Cell death in Jurkat T cells (PI/FITC-Annexin V); assay type: cell-based; details: 0.082M-0.0082M HEMA and/or NAC 20 mM simultaneously; overnight
Protocol: After an overnight incubation the levels of cell death in Jurkat T cells were determined using dual staining with PI/FITC-Annexin V as described previously (FIG. 19B). 10,000 events were analyzed for each sample. Similar results were obtained when apoptosis was assessed by PI staining of ethanol fixed Jurkat T cells. • 2. Decreased Levels of Full Length Caspase 9 and Caspase 3 in HEMA-Treated Keratinocytes

Jurkat cells = test: Mitochondrial membrane potential in Jurkat cells (DiOC6); assay type: cell-based; details: HEMA alone or with NAC 20 mM
Protocol: The membrane potential was assessed by staining with DiOC6 which is a positively charged dye. At low concentrations, it accumulates in mitochondria due to their large negative membrane potential. However when the membrane potential is disrupted there is less binding of this dye.

[6] = system: human dental pulp stromal cells; test: VEGF release from human dental pulp stromal cells (Table 4); assay type: cell-based
Protocol: (§1) The cells were then grown in media containing β-glycerophosphate and ascorbic acid until they reached confluency. […] Supernatants were measured for VEGF release.

[7] = system: UCLA-2 cells (a primary oral tumor line); test: VEGF release from UCLA-2 cells (Table 4); assay type: cell-based
Protocol: as §1

[8] = system: human smooth muscle cells; test: VEGF secretion of human smooth muscle cells (ELISA); assay type: cell-based; details: HEMA (0.082M) alone or with NAC 20 mM, 4 hours, then overnight
caspases 9 and 3 = test: Full length caspases 9 and 3 in HEp2 cells (Western blot); assay type: cell-based; details: 0.0164M HEMA about 18 hours
Protocol: Protein concentrations were determined by a DC protein assay kit (Bio-Rad, Hercules, Calif.). An aliquot of total protein lysate was diluted in an equal volume of about 2% SDS sample buffer, about 6.2 mM Tris (pH about 6.8), about 2.3% SDS, about 5% mercaptoethanol, about 10% glycerol, and about 0.02% bromophenol blue and boiled for about 10 minutes. The cell lysates (40 μg) were then electrophoresed on 12% SDS-PAGE gels and were subjected to Western blot analysis. Levels of β-tubulin and actin were used to normalize the protein expression. Relative concentrations were assessed by densitometric analysis of digitized autographic images. The anti-actin and anti-β-tubulin monoclonal antibodies were purchased from Santa Cruz Biotechnology (Santa Cruz, Calif.) and from Calbiochem (San Francisco, Calif.) respectively. The polyclonal antibodies anti-caspase 3 and anti-caspase 9, were obtained from Cell Signaling (San Diego, Calif.). […] Decreased Processing and Cleavage of Caspase 3 in the Presence of NAC

GAPDH = GAPDH protein in dental pulp stromal cells (KDalert GAPDH assay kit); assay type: cell-based; details: HEMA (0.082M) alone or with NAC 20 mM, 4 hours
Protocol: After 4 hours of incubation the protein levels of GAPDH were determined using a KDalert GAPDH assay kit (Ambion). This assay is a fluorescent based assay which measures the conversion of NAD+ to NADH catalyzed by GAPDH.

odontoblasts = test: ALP staining of rat odontoblasts; assay type: cell-based; details: 0.00328M HEMA; overnight, 7 days or 14 days
Protocol: Restoring the function of cells is also very important. Therefore, ALP staining was performed as a measure of odontoblast function. […] Following this incubation, cells were washed twice with PBS and incubated with 120 mM of Tris buffer (pH=8.4) containing 0.9 mM Napthol AS-M Phosphate and 1.8 mM Fast Red TR for 30 minutes at 37° C. Afterwards the cells were washed three times with PBS and then fixed with 1 ml cold ethanol (100%) for about 30 minutes. The stained cultures were digitized using a scanner.

Caspase 3 [9] = test: Caspase 3 induction in Jurkat cells; assay type: cell-based; details: HEMA alone or with NAC 20 mM
GAPDH mRNA = GAPDH mRNA in dental pulp stromal cells (RT-PCR); assay type: cell-based; details: HEMA alone or with NAC 20 mM, 4 hours
Protocol: The role of GAPDH in HEMA-mediated cytotoxicity was also evaluated. […] In comparison no significant decrease in β-actin and collagen-1 under the same experimental conditions could be seen.

RAW 264.7 cells = test: Morphological changes in RAW 264.7 cells (inverted microscope); assay type: cell-based, murine; details: HEMA alone or with simultaneous NAC 20 mM, overnight
Excerpt: Peripheral Blood Mononuclear Cells

[10] = HEMA 0.00164M, alone or with NAC
[11] = HEMA 0.0082M, alone or with NAC
[12] = HEMA 0.0164M, alone or with NAC

Compound | levels of full length caspase 3 (processing of caspase 3) (Caspase 3 [3]) | VEGF secretion [4] | cell death [4] | apoptotic cell death (PI/Annexin V) (HaCaT cells) | VEGF secretion [5] | apoptotic cell death (Jurkat T cells) | mitochondrial membrane potential (Δψm) (Jurkat cells) | VEGF secretion [8] | full length caspases 9 and 3 levels (caspases 9 and 3) | GAPDH protein expression (GAPDH) | ALP staining (odontoblast function) (odontoblasts) | Caspase 3 induction (Caspase 3 [9]) | GAPDH mRNA (GAPDH mRNA) | morphological changes (decreased size, blebbing, apoptotic bodies) (RAW 264.7 cells) | also measured
C=C(C)C(=O)OCCO [HEMA, hydroxyethyl methacrylate] | decrease in the levels of full length caspase 3 | large effects | large effects | dose dependent induction of apoptotic cell death | significantly decreased secretion of VEGF | undergo apoptotic cell death | decrease in mitochondrial membrane potential | significantly reduced VEGF secretion | diminishes full length caspases 9 and 3 levels | significant decrease in GAPDH protein expression | significantly less staining | increase in Caspase 3 induction | significant inhibition of GAPDH mRNA | morphological changes indicative of apoptosis | cells that underwent cell death (osteoblasts; osteoblasts, 0.0164M HEMA): 49.7%; VEGF ([1]; HEp2 +0.00164M HEMA, −/+NAC, Patient PBMC +IL-2): 7760; VEGF ([1]; HEp2 +0.00164M HEMA, −/+NAC, Patient PBMC −IL-2): 6550; VEGF ([1]; HEp2 +0.0164M HEMA, −/+NAC 20 mM, about 18 hours, Patient PBMC −IL-2): 1161; VEGF ([1]; HEp2 +0.0164M HEMA, −/+NAC, Patient PBMC +IL-2): 379; IL-6 ([2]; HEp2 +0.00082M HEMA, −/+NAC, PBMC +IL-2): 371 pg/mL; IL-6 ([2]; HEp2 +0.00082M HEMA, −/+NAC, PBMC −IL-2): 204 pg/mL; IL-6 ([2]; HEp2 +0.00164M HEMA, −/+NAC, PBMC +IL-2): 264 pg/mL; IL-6 ([2]; HEp2 +0.00164M HEMA, −/+NAC, PBMC −IL-2): 208 pg/mL; IL-6 ([2]; HEp2 +0.0082M HEMA, −/+NAC, PBMC +IL-2): 243 pg/mL; IL-6 ([2]; HEp2 +0.0082M HEMA, −/+NAC, PBMC −IL-2): 192 pg/mL; IL-6 ([2]; HEp2 +0.0164M HEMA, −/+NAC, PBMC +IL-2): 262 pg/mL; IL-6 ([2]; HEp2 +0.0164M HEMA, −/+NAC, PBMC −IL-2): 191 pg/mL; Human dental pulp stromal cells (VEFG secretion) [6, 10]: 163.7 pg/mL; Human dental pulp stromal cells (VEFG secretion) [6, 11]: 125.1 pg/mL; Human dental pulp stromal cells (VEFG secretion) [6, 12]: 113.4 pg/mL; UCLA-2 (VEFG secretion) [7, 10]: 3258.8 pg/mL; UCLA-2 (VEFG secretion) [7, 11]: 319.6 pg/mL; UCLA-2 (VEFG secretion) [7, 12]: 180.2 pg/mL
CC(=O)N[C@@H](CS)C(=O)O [NAC, N-acetyl-cysteine] | this decrease is inhibited | strongly if not totally ameliorated | strongly if not totally ameliorated | considerably decreased the percentages of cells positive for PI/Annexin V staining | prevented the HEMA-mediated decrease | significantly blocked | restored mitochondrial membrane potential | could be reversed | inhibits HEMA-mediated decrease in caspases 9 and 3 | preventing the decrease in GAPDH protein expression | positive for ALP staining | decreased the induction of caspase 3 expression | prevented this inhibition | inhibited the occurrence of these morphological changes | prevention of HEMA-mediated cell death (osteoblasts; NAC 20 mM, 18 hours): can prevent HEMA-mediated cell death; VEGF ([1]; HEp2 −HEMA (+NAC 20 mM), Patient PBMC −IL-2): 5648; VEGF ([1]; HEp2 −HEMA (+NAC), Patient PBMC +IL-2): 5805; IL-6 ([2]; HEp2 −HEMA (+NAC), PBMC +IL-2): 1835 pg/mL; IL-6 ([2]; HEp2 −HEMA (+NAC), PBMC −IL-2): 880 pg/mL; Human dental pulp stromal cells (VEFG secretion) ([6]; NAC alone, no HEMA): 1804.1 pg/mL; UCLA-2 (VEFG secretion) ([7]; NAC alone, no HEMA): 2831.9 pg/mL
